Legend:
[1] = system: NO production in LPS-stimulated BV2 cells; test: Inhibition of NO production in LPS-stimulated BV2 cells (Griess reagent); details: Mus musculus; for inhibition at 20 µM: BV-2, read-out: NO Inhibitory Activity % Inhibition (20 μM); for IC50: BV-2, read-out: NO Inhibitory Activity IC50
Procedure: To evaluate the anti-inflammatory effect, all compounds were screened on an LPS-stimulated BV2 model to determine the inhibitory effects against NO production [21].
The BV-2 mouse microglia cell line was purchased from the Cell Bank of Shanghai Institute of Biochemistry and Cell Biology, Chinese Academy of Sciences (Shanghai, China), and was cultured in Dulbecco’s modified Eagle medium (DMEM, Gibco Invitrogen Corp., Suzhou, China) supplemented with 10% fetal bovine serum (FBS), 100 units/mL penicillin, and 100 mg/mL streptomycin. The cells were placed at 37 °C in a humidified incubator containing 5% CO2.
The inhibitory activity of the isolated compounds toward NO production was determined using the Griess reagent system (Beyotime). Cells were cultured in each well of 96-well plates at a density of 5 × 10^4 cells/well with 100 mL of DMEM for 24 h. Test samples dissolved in DMSO and diluted with DMEM were added, as well as 2 mg/mL LPS as a stimulus. The final drug concentration was 50 μM with 1% DMSO. Wells treated with only LPS served as model controls, and wells treated with neither LPS nor test samples served as blank controls (all contained 1% DMSO). After 24 h incubation, half of the medium (50 mL) in each well was harvested.

[2] = Cytotoxic effect in BV-2 cells, Cell Counting Kit-8 (CCK-8) assay; assay type: cell-based; details: mouse, BV-2 microglia cells
Procedure: Cells were pretreated with or without compounds for 2 h and then induced with 40 μg/mL LPS for another 48 h. […] The absorbance was then measured at a wavelength of 450 nm with a microplate reader (Thermo Fisher Scientific, Marietta, OH, USA). The cell proliferation was expressed as a ratio of control.

Row | IC50 [1] [µM] | SMILES | inhibition at 20 µM [1] [%] | CC50 at 50 h [2] [µM]
1 | – | CC1=C2C(O)CC3(C)CCC(C)CC(=O)CC(C)CC(OC1=O)C23 (stereo not shown) [Compound 1, Clavirolide W] | 15.1 ± 2.4 | > 50
2 | – | CC1=CC(OO)C2(C)CCC3=C(C)C(=O)OC(CC(C)CC(=O)C1)C32 (stereo not shown) [Compound 5, clavularol A] | 26.8 ± 3.6 | > 50
3 | – | C=C1CCC2OC2(C)CC(O)C2=C(C(C)(C)O)CCC2(C)CC1 (stereo not shown) [Compound 9, Clavularol E] | 12.6 ± 2.6 | > 50
4 | 18.3 ± 0.6 | C=C1CC[C@@H]2O[C@@]2(C)C[C@@H](O)[C@@H]2C(C(C)(C)O)=CC[C@@]2(C)CC1 [Compound 10, clavularol F] | 68.9 ± 3.6 | > 50
5 | 27 ± 0.6 | CC1=CC(=O)C=C(C)CC2OC(=O)C(C)=C3CCC(C)(CC1)C32 (stereo not shown) [Compound 3, Clavirolide Y] | 42.7 ± 3.5 | > 50
6 | – | C=C1CCC=C(C)CC(O)C2C(C)(CC1)CC1OC12C(C)(C)O (stereo not shown) [Compound 7, clavularol C] | 24 ± 3.8 | > 50
7 | 23.4 ± 0.4 | CC1=C2CC[C@@]3(C)CC[C@H](C)CC(=O)C[C@@H](C)C[C@@H](OC1=O)[C@H]23 [Compound 15, clavirolide C] | 48.3 ± 3.6 | > 50
8 | – | C=C1CCC=C(C)CC(O)C2=C(C(C)(C)O)CCC2(C)CC1 (stereo not shown) [Compound 14, clavudiol A] | 25.4 ± 2.4 | > 50
9 | – | CC1=CCC2(C)CCC3=C(C)C(=O)OC(CC(C)CC(=O)C1)C32OO (stereo not shown) [Compound 4, Clavirolide Z] | 29 ± 2.8 | > 50
10 | – | CC1=CC(=O)CC(C)=CC(O)C2C(C(C)(C)OO)=CCC2(C)CC1 (stereo not shown) [Compound 6, clavularol B] | 14.6 ± 1.2 | > 50
11 | – | C=C1CC[C@@H]2O[C@@]2(C)C[C@@H](O)C2=C(C(C)(C)O)CC[C@@]2(C)CC1 [Compound 8, Clavularol D] | 35.9 ± 4.2 | > 50
12 | – | CC1=C2CCC3(C)CCC(C)CC(=O)CC(C)CC(OC1=O)C23OO (stereo not shown) [Compound 2, Clavirolide X] | 36.4 ± 1.7 | > 50
13 | – | C=C1CC[C@H]2O[C@]2(C)C[C@@H](O)[C@H]2[C@](C)(CC1)CC[C@@]2(O)C(=C)C [Compound 11, Clavularol G] | 18.4 ± 2.8 | > 50
14 | 20.3 ± 0.3 | C=C1CCC(O)C(C)=CC2OC(C)(C)C3=C2C(C)(CC1)CC3 (stereo not shown) [Compound 12, Clavularol H] | 48.8 ± 4.2 | > 50
15 | 20.3 ± 0.3 | C=C1CCC=C(C)CC(O)C2C(C(C)(C)O)=CCC2(C)CC1 (stereo not shown) [Compound 13, clavularinlide E] | 45.6 ± 3.5 | > 50

Row | SMILES | IC50 [1] [µM] | inhibition at 20 µM [1] [%] | CC50 at 50 h [2] [µM]
16 | [H]/N=C(/NC)NCCC[C@H](N)C(=O)O [L-NMMA, L-NG-monomethyl arginine, reference compound] | 17.8 ± 0.6 | 76.7 ± 4.2 | –

From article PMC12387469, “Dolabellane Diterpenoids from Soft Coral Clavularia viridis with Anti-Inflammatory Activities” (Marine Drugs, 2025)
